# Measurements: patent US12208122B2, “Methods of treating bleeding in a subject treated with an antiplatelet agent” (Cellphire, Inc., priority 2019, dated 2025)
# Where two headings read alike, the source gives them in different places. Where a SMILES comes first, the peptide text is derived from it. Bridges are numbered along the chain shown (N, C = ends). [ ]: non-standard residue; d: D form. hArg = N=C(N)NCCCC[C@H](N)C(=O)O; Mpa = O=C(O)CCS
# Legend:
# [1] = system: platelets (platelet rich plasma); assay: Transmission light aggregometry, collagen-induced platelet aggregation in PRP; type: cell-based, human
# Procedure: The aggregation of platelets (in platelet rich plasma) was evaluated using transmission light aggregrometry. […] (FIG. 8).
# (§1) Platelets will aggregate with collagen and arachidonic acid stimulation. […] The PL chip system on the T-TAS® was used to emulate in vitro platelet binding and aggregation due to the exposure of collagen in the vasculature under shear conditions.
# (§2) Plasma samples with platelet or thrombosomes or combination of both are loaded into cuvettes and placed into the aggregometry chambers. The chambers warm the sample and provide constant stirring. The initiation of aggregation can be done by multiple types of […] agents not limited to thrombin, ADP, collagen and any agent known to stimulate platelet aggregation. The samples can also have been taken as ex-vivo, or in-vitro supplemented with inhibitors. The instrument begins the assay by first recording the light transmission previous to stimulation for 2 minutes. The stimulant of interest is then introduced by the technician and the change in light transmission is recorded over time. The increase in light transmission corresponds to increase in platelet aggregation.
# [2] = system: whole blood; assay: T-TAS PL chip (collagen only) thrombus formation, whole blood; type: cell-based, human; conditions: whole blood with 100 and 500 μM aspirin; FIG. 17
# Excerpt: (§3) In the Total Thrombus-formation Analysis System (T-TAS®, FUJIMORI KOGYO CO., LTD), the sample is forced through collagen-coated microchannels using mineral oil. Changes in pressure are used to assess thrombus formation. The Occlusion Start Time is time it takes to reach 10 kPa, and the Occlusion Time=time it takes to each Δ80 kPa using an AR chip (e.g., Zacros Item No, TC0101). According to the manufacturer, an AR chip can be used for analyzing the formation of a mixed white thrombus consisting chiefly of fibrin and activated platelets. It has a flow path (300 μm wide by 50 μm high) coated with collagen and tissue factors and can be used to analyze the clotting function and platelet function. In comparison, a PL chip can be used for analyzing the formation of a platelet thrombus consisting chiefly of activated platelets. A PL chip has a flow path coated with collagen only and can be used to analyze the platelet function.
# as §1
# Evaluation by T-TAS® Using a PL Chip
# PL chips are run similarly to AR chips, but this chip is only coated with collagen alone.
# [3] = system: platelet rich plasma; assay: T-TAS AR chip (collagen and tissue factor) occlusion under shear, platelet rich plasma; type: cell-based, human
# [4] = system: platelets (platelet rich plasma); assay: Transmission light aggregometry, arachidonic acid-induced platelet aggregation in PRP; type: cell-based, human
# Excerpt: as §1
# as §2, with “The samples can also have been taken as ex-vivo, or in-vitro supplemented with inhibitors.” left out
# Platelet rich plasma was taken from subject on 800 mg ibuprofen.
# [5] = system: platelets (platelet rich plasma); assay: Transmission light aggregometry, ADP-induced platelet aggregation in PRP; type: cell-based, human; conditions: cangrelor 0.5 μM-3.5 μM, 10 μM ADP, FIG. 1
# Excerpt: as §2
# [6] = system: platelet rich plasma; assay: T-TAS AR chip (collagen and tissue factor) occlusion under shear, platelet rich plasma; type: cell-based, human; conditions: for area under the curve (AUC): FIG. 3; for time to occlusion: FIG. 4
# Excerpt: as §3
# The effect of cangrelor on platelet occlusion under shear was evaluated by T-TAS®.
# Evaluation by T-TAS® using an AR chip. AR chips are characterized by a single channel containing collagen and tissue factor; they can be used to analyze clotting and platelet function.
# [7] = system: NOD/SCID mice; assay: Tail-snip bleed model in clopidogrel-treated NOD/SCID mice; type: in vivo, mouse; conditions: ~3 times the clinical dose of clopidogrel for 5 days (untreated 9 minutes)
# Procedure: The mouse was treated with clopidogrel for 5 days. The mouse was anesthetized, the tail end was snipped off followed by thrombosomes being immediately administered. The time from tail snip to tail stop bleeding was recorded by visual inspection.
# NOD/SCID mice were treated with ˜ 3 times the clinical dose of clopidogrel for 5 days then assessed in the tail-snip bleed model. The bleed time (min) was extended to 17.8 minutes with clopidogrel treatment verses untreated at 9 minutes (data not shown).
# [8] = system: platelets; conditions: cited from earlier work
# [9] = system: whole blood; assay: T-TAS AR chip occlusion under shear, whole blood; type: cell-based, human; conditions: whole blood with 6 μM eptifibatide (whole blood alone 8 minutes); FIG. 9
# Excerpt: as §3
# The effect of thrombosomes on shortening clotting times while in the presence of eptifibatide was also studied. The ability of thrombosomes to recover occlusion times was studied on the T-TAS® system. The T-TAS® system measures occlusion time under shear forces with collagen and thromboplastin stimulation. The whole blood profile of occlusion and AUC on the AR T-TAS® chip lengthened and decreased, respectively, with eptifibatide. […]
smiles,measurement,setting,value
"CC(=O)Oc1ccccc1C(=O)O [aspirin, acetylsalicylic acid]",collagen-induced platelet aggregation,"[1]; collagen 10 ug/mL, aspirin 100-400 μM, FIG. 16",partially inhibited
same,platelet binding and aggregation on collagen under shear (PL chip),[2],largely limited
same,occlusion on T-TAS flow system,"[3]; PRP taken from a subject on 81 mg/day aspirin, FIGS. 29A, 29B",failed to occlude
same,arachidonic acid-induced platelet aggregation,"[4]; AA 500 ug/mL, aspirin 100-400 μM, PRP, FIG. 16",completely inhibited
CSCCNc1nc(SCCC(F)(F)F)nc2c1ncn2[C@@H]1O[C@H](COP(=O)(O)OP(=O)(O)C(Cl)(Cl)P(=O)(O)O)[C@@H](O)[C@H]1O [cangrelor],ADP-induced platelet aggregation (integrated aggregation curve),[5],complete inhibition
same,occlusion time,"[6]; PRP treated with 100 ng/mL cangrelor and ADP (from 19), FIGS. 25A, 25B",26 min
same,platelet adhesion and occlusion on AR chip,"[6]; cangrelor 1 μM combined with ADP 10 μM, PRP, FIG. 2",essentially eliminated
same,platelet occlusion on AR chip,"[6]; cangrelor alone 1 μM, PRP, FIG. 2",did not exhibit inhibition on occlusion
same,area under the curve (AUC),"[6]; cangrelor alone, PRP",little effect on AUC value
same,time to occlusion,"[6]; cangrelor alone, PRP",little effect on occlusion times
same,area under the curve (AUC),"[6]; cangrelor combined with ADP stimulation, PRP",dropped close to zero
same,time to occlusion,"[6]; cangrelor plus ADP stimulation, PRP",inhibited occlusion essentially completely
COC(=O)[C@H](c1ccccc1Cl)N1CCc2sccc2C1 [clopidogrel],bleed time,[7],17.8 min
same,time to return of platelet function,[8]; after stopping infusion,approximately 1 hour
N=C(N)NCCCC[C@@H]1NC(=O)CCSSC[C@@H](C(N)=O)NC(=O)[C@@H]2CCCN2C(=O)[C@H](Cc2c[nH]c3ccccc23)NC(=O)[C@H](CC(=O)O)NC(=O)CNC1=O [eptifibatide] ([Mpa][hArg]GDWPC-NH2; disulfide 1-7),collagen-induced platelet aggregation,"[1]; collagen 10 μg/mL, all eptifibatide concentrations tested, FIG. 8",completely inhibited
same,time for bleeding time to return to normal after drug stoppage,[8]; after drug stoppage,≤ 1 h
same,occlusion time,"[3]; PRP treated with 9 μM eptifibatide (from 18.43), FIGS. 27A, 27B",over 30 minutes
same,occlusion time,[9],16 min
CC(C)Cc1ccc(C(C)C(=O)O)cc1 (centres unmarked) [ibuprofen],occlusion on T-TAS flow system,"[3]; PRP from subject on 800 mg ibuprofen, addition of ADP, FIG. 31B",abolished occlusion
same,occlusion on T-TAS flow system,"[3]; PRP from subject on 800 mg ibuprofen, no ADP, FIG. 31B",demonstrated occlusion
same,aggregation in response to arachidonic acid,"[4]; PRP from subject on 800 mg ibuprofen, FIG. 31A",lack of aggregation
CCCSc1nc(N[C@@H]2C[C@H]2c2ccc(F)c(F)c2)c2nnn([C@@H]3C[C@H](OCCO)[C@@H](O)[C@H]3O)c2n1 [ticagrelor],time to return of platelet function,[8]; after the last dosage,approximately 72 hours
CCCCS(=O)(=O)N[C@@H](Cc1ccc(OCCCCC2CCNCC2)cc1)C(=O)O [tirofiban],occlusion time,"[3]; PRP treated with 100 ng/mL tirofiban (from 18.43), FIGS. 26A, 26B",no occlusion
